The source of these data is PubChem BioAssay AID328 (DTP/NCI, 2004).

In this assay the test system is BDF1 mice, P388 leukemia ip, median survival T/C. Put plainly: NCI In Vivo Anticancer Drug Screen. Data for tumor model P388 Leukemia (intraperitoneal) in B6D2F1 (BDF1) mice. The conditions noted are these: endpoint: median survival time, higher = longer survival. The essentials:
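Reported as T/C, where T is the survival measurement in dosed animals and C the same measurement in vehicle controls.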

Setting [1] is: dose: 100.0 mg/kg/injection, schedule: Q01DX009 (ip), vehicle: saline with Tween-80.
The mark [2] stands for this setting: dose: 25.0 mg/kg/injection, schedule: Q01DX009 (ip), vehicle: saline with Tween-80.
The mark [3] stands for this setting: dose: 50.0 mg/kg/injection, schedule: Q01DX009 (ip), vehicle: saline with Tween-80.
The mark [4] stands for this setting: dose: 50.0 mg/kg/injection, schedule: Q01DX009 (ip), vehicle: saline.

Several values for one entry are separate records, joined by “and”; a condition that tells them apart may be missing. Equal entries are not always repeated. Inconclusive results and toxic doses are left out.

For `CC=C(/C(=C/C)c1ccc(O)cc1)c1ccc(O)cc1`, the T/C is 100 % of control (dose: 66.0 mg/kg/injection, schedule: Q01DX009 (ip), vehicle: saline with Tween-80); 109 % of control under setting [1]; 118 % of control (dose: 150.0 mg/kg/injection, schedule: Q01DX009 (ip), vehicle: saline with Tween-80).

On to `Nc1ccn(CC(=O)c2cccs2)c(=O)n1`, for which the T/C reads like this: under setting [2], 100 % of control; under setting [3], 115 % of control; under setting [1], 100 % of control; (dose: 100.0 mg/kg/injection, schedule: Q04DX003 (ip), vehicle: saline with Tween-80) 90 % of control; (dose: 200.0 mg/kg/injection, schedule: Q04DX003 (ip), vehicle: saline with Tween-80) 95 % of control.

Take `C[CH2][Pb]([CH2]C)([CH2]C)[O]C(=O)COc1ccccc1`: the T/C was 118 % of control (dose: 0.75 mg/kg/injection, schedule: Q01DX009 (ip), vehicle: Klucel (hydroxypropylcellulose) (HPC)); 107 % of control (dose: 0.75 mg/kg/injection, schedule: Q04DX003 (ip), vehicle: saline with Tween-80); 117 % of control (dose: 1.5 mg/kg/injection, schedule: Q04DX003 (ip), vehicle: saline with Tween-80); 115 % of control (dose: 1.56 mg/kg/injection, schedule: Q01DX009 (ip), vehicle: saline with Tween-80); 112 % of control (dose: 3.9 mg/kg/injection, schedule: Q04DX003 (ip), vehicle: alcohol); 117 % of control (dose: 6.0 mg/kg/injection, schedule: Q01DX009 (ip), vehicle: Klucel (hydroxypropylcellulose) (HPC)). Besides, the T/C runs as follows: (dose: 6.0 mg/kg/injection, schedule: Q04DX003 (ip), vehicle: alcohol) 120 % of control; (dose: 6.25 mg/kg/injection, schedule: Q01DX009 (ip), vehicle: saline with Tween-80) 153 % of control and 168 % of control; (dose: 9.0 mg/kg/injection, schedule: Q04DX003 (ip), vehicle: alcohol) 105 % of control; (dose: 12.0 mg/kg/injection, schedule: Q04DX003 (ip), vehicle: saline with Tween-80) 107 % of control.

For `C=CCC(CC)C(=O)O` (centres undefined), the T/C is 100 % of control under setting [4] and 104 % of control (dose: 100.0 mg/kg/injection, schedule: Q01DX009 (ip), vehicle: saline).

In the case of `O=C(Nc1ccccc1)Oc1cccc(/C=N/Sc2ccccc2)c1`, the T/C runs as follows: (dose: 12.5 mg/kg/injection, schedule: Q01DX009 (ip), vehicle: saline with Tween-80) 107 % of control; under setting [2], 100 % of control; under setting [3], 91 % of control.

For `C/C(=C\c1ccccc1)[N+](=O)[O-]`, the T/C (dose: 4.0 mg/kg/injection, schedule: Q01DX009 (ip), vehicle: Klucel (hydroxypropylcellulose) (HPC)) was 101 % of control; the T/C (dose: 6.2 mg/kg/injection, schedule: Q01DX009 (ip), vehicle: saline) is 90 % of control; the T/C (dose: 6.25 mg/kg/injection, schedule: Q01DX009 (ip), vehicle: saline) was 100 % of control; the T/C (dose: 8.0 mg/kg/injection, schedule: Q01DX009 (ip), vehicle: Klucel (hydroxypropylcellulose) (HPC)) was 108 % of control; the T/C (dose: 12.5 mg/kg/injection, schedule: Q01DX009 (ip), vehicle: saline) is 90 % of control and 105 % of control; the T/C (dose: 25.0 mg/kg/injection, schedule: Q01DX009 (ip), vehicle: Klucel (hydroxypropylcellulose) (HPC)) is 100 % of control. The T/C was 90 % of control and 108 % of control and 119 % of control (dose: 25.0 mg/kg/injection, schedule: Q01DX009 (ip), vehicle: saline); 113 % of control (dose: 25.0 mg/kg/injection, schedule: Q04DX003 (ip), vehicle: Klucel (hydroxypropylcellulose) (HPC)); 118 % of control (dose: 30.0 mg/kg/injection, schedule: Q01DX009 (ip), vehicle: Klucel (hydroxypropylcellulose) (HPC)); 109 % of control (dose: 44.0 mg/kg/injection, schedule: Q01DX009 (ip), vehicle: Klucel (hydroxypropylcellulose) (HPC)); 87 % of control (dose: 50.0 mg/kg/injection, schedule: Q01DX009 (ip), vehicle: Klucel (hydroxypropylcellulose) (HPC)); 115 % of control and 123 % of control under setting [4]. Moreover, the T/C was 113 % of control (dose: 50.0 mg/kg/injection, schedule: Q04DX003 (ip), vehicle: Klucel (hydroxypropylcellulose) (HPC)); 100 % of control (dose: 50.0 mg/kg/injection, schedule: Q04DX003 (ip), vehicle: saline); 95 % of control (dose: 67.0 mg/kg/injection, schedule: Q01DX009 (ip), vehicle: Klucel (hydroxypropylcellulose) (HPC)); 109 % of control (dose: 100.0 mg/kg/injection, schedule: Q04DX003 (ip), vehicle: saline); 100 % of control (dose: 200.0 mg/kg/injection, schedule: Q04DX003 (ip), vehicle: saline); 109 % of control (dose: 400.0 mg/kg/injection, schedule: Q04DX003 (ip), vehicle: saline).

Turning to `CC(Cc1cccs1)N=Cc1cc(Br)ccc1O` (centres undefined), the T/C by setting is: (dose: 100.0 mg/kg/injection, schedule: Q01DX001 (ip), vehicle: saline with Tween-80) 100 % of control; (dose: 200.0 mg/kg/injection, schedule: Q01DX001 (ip), vehicle: saline with Tween-80) 111 % of control; (dose: 400.0 mg/kg/injection, schedule: Q01DX001 (ip), vehicle: saline with Tween-80) 109 % of control.

As for `CC(=O)C(Cl)C(C)=O.CC(=O)C(Cl)C(C)=O.CO.CO.[Ni]`, the T/C (dose: 12.0 mg/kg/injection, schedule: Q01DX001 (ip), vehicle: Klucel (hydroxypropylcellulose) (HPC)) was 108 % of control; the T/C (dose: 25.0 mg/kg/injection, schedule: Q01DX001 (ip), vehicle: Klucel (hydroxypropylcellulose) (HPC)) is 95 % of control; the T/C (dose: 50.0 mg/kg/injection, schedule: Q01DX001 (ip), vehicle: Klucel (hydroxypropylcellulose) (HPC)) is 112 % of control; the T/C (dose: 100.0 mg/kg/injection, schedule: Q01DX001 (ip), vehicle: Klucel (hydroxypropylcellulose) (HPC)) is 104 % of control; the T/C (dose: 400.0 mg/kg/injection, schedule: Q01DX001 (ip), vehicle: Klucel (hydroxypropylcellulose) (HPC)) is 118 % of control.

As for `CC(C)(C)OC(=O)NCC(=O)NC(Cc1c[nH]c2ccccc12)C(=O)O` (centres undefined), the T/C was 102 % of control (dose: 50.0 mg/kg/injection, schedule: Q01DX005 (ip), vehicle: saline with Tween-80); 95 % of control (dose: 100.0 mg/kg/injection, schedule: Q01DX005 (ip), vehicle: saline with Tween-80); 95 % of control (dose: 200.0 mg/kg/injection, schedule: Q01DX005 (ip), vehicle: saline with Tween-80).

For the compound `COC12C(COC(N)=O)C3=C(C(=O)C(C)=C(N)C3=O)N1CC1C2N1C` (centres undefined), the T/C (dose: 2.0 mg/kg/injection, schedule: Q01DX009 (ip), vehicle: saline) was 163 % of control; the T/C (dose: 2.0 mg/kg/injection, schedule: Q01DX010 (ip), vehicle: saline) was 175 % of control; the T/C (dose: 4.0 mg/kg/injection, schedule: Q01DX009 (ip), vehicle: saline) was 179 % of control; the T/C (dose: 4.0 mg/kg/injection, schedule: Q01DX010 (ip), vehicle: saline) was 190 % of control; the T/C (dose: 8.0 mg/kg/injection, schedule: Q01DX009 (ip), vehicle: saline) was 198 % of control; the T/C (dose: 8.0 mg/kg/injection, schedule: Q01DX010 (ip), vehicle: saline) is 240 % of control. For the same compound, the T/C is 88 % of control (dose: 16.0 mg/kg/injection, schedule: Q01DX009 (ip), vehicle: saline) and 110 % of control (dose: 16.0 mg/kg/injection, schedule: Q01DX010 (ip), vehicle: saline).

Take `CS(=O)(=O)CCN(N=O)C(=N)N[N+](=O)[O-]`: the T/C (dose: 19.0 mg/kg/injection, schedule: Q04DX003 (ip), vehicle: saline with Tween-80) is 113 % of control and the T/C (dose: 150.0 mg/kg/injection, schedule: Q04DX003 (ip), vehicle: saline with Tween-80) was 150 % of control.

For the compound `Cc1nnc2sc3c(Cl)c4nn5c(C)nnc5sc4c(Cl)c3nn12`, the T/C runs as follows: under setting [3], 92 % of control; under setting [1], 100 % of control.

On to `O=C1C(Cl)=C(Cl)C(=O)C2=C1C1c3ccccc3C2c2ccccc21`, for which the T/C is 115 % of control (dose: 100.0 mg/kg/injection, schedule: Q01DX009 (ip), vehicle: Klucel (hydroxypropylcellulose) (HPC)); 120 % of control (dose: 200.0 mg/kg/injection, schedule: Q01DX009 (ip), vehicle: Klucel (hydroxypropylcellulose) (HPC)); 109 % of control (dose: 200.0 mg/kg/injection, schedule: Q04DX003 (ip), vehicle: saline sonified); 105 % of control (dose: 400.0 mg/kg/injection, schedule: Q01DX009 (ip), vehicle: Klucel (hydroxypropylcellulose) (HPC)); 104 % of control (dose: 400.0 mg/kg/injection, schedule: Q04DX003 (ip), vehicle: saline sonified).
